Read-outs that look alike come from different tables or passages of the source.
Target: CFTR (Homo sapiens, UniProt P13569)
Experiment: Membrane Potential Dye, Enteroid Assay B
Format: cell-based
Outline: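 Human intestinal enteroid cells exposed to compound 18-24 h at 37 °C, then loaded with methyl oxonol membrane-potential dye plus CaCC blockers. Chloride transport triggered in chloride-free buffer with 10 μM forskolin, 100 μM IBMX, 300 nM Compound III; fluorescence read 15 min, expressed as % of triple-corrector/potentiator combination control.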

[1] = Table 10, read-out: Ent. B EC50

CFTR, sequence (P13569 with tags, fused parts or gaps DEL508-508): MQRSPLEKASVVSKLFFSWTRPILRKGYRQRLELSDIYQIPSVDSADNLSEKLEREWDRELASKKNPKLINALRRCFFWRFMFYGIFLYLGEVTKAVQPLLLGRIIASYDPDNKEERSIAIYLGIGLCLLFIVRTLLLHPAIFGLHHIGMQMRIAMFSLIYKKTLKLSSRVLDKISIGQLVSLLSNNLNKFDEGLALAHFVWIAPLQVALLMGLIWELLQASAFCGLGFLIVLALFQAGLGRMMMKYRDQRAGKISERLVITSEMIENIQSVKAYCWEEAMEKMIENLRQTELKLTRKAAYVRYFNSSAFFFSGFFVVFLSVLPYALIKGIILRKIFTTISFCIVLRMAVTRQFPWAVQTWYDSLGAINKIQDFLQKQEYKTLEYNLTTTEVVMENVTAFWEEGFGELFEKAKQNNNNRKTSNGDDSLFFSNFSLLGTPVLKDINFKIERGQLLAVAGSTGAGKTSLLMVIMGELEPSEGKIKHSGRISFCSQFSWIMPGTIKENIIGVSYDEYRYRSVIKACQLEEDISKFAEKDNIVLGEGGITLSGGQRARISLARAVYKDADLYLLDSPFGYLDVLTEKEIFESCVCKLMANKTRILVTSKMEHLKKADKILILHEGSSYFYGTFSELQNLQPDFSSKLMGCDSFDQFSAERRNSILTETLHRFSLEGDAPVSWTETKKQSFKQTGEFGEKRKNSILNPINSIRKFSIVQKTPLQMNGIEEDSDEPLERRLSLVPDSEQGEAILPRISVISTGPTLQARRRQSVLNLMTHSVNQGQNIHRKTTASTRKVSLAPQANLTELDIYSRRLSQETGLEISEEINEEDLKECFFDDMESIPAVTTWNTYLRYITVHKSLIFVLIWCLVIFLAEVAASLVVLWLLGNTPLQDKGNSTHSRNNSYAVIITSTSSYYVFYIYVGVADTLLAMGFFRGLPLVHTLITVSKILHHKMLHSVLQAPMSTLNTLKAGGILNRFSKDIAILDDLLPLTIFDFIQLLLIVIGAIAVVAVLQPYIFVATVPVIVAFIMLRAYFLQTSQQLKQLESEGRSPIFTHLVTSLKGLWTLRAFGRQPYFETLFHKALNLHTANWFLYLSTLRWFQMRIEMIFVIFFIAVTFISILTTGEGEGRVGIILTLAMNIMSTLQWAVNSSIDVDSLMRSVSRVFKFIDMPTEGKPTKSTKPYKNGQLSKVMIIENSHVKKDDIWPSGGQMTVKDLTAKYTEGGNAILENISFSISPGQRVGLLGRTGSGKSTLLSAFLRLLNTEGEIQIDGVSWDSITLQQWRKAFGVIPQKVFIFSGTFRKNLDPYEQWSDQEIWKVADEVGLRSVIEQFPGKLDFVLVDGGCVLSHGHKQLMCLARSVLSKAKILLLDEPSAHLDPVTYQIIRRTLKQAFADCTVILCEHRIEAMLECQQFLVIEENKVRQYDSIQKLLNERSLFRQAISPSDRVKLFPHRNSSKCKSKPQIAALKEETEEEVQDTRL

Row | Structure (SMILES) | Ent. B Max Activity (%) (Table 9) | EC50 (Table 9, read-out: Ent. B EC50) [nM] | Ent. B Max Activity (%) (Table 10) | EC50 [1] [nM] | other results
1 | COC(=O)N1CCC2(CC1)CC(N1C(=O)c3cccc(c3)S(=O)(=O)Nc3nc(cc(-c4c(C)cccc4C)n3)OC[C@H]1CC(C)(C)C(F)(F)F)C2 [Compound 191, Methyl 2-[(11R)-6-(2,6-dimethylphenyl)-2,2,13-trioxo-11-(3,3,3-trifluoro-2,2-dimethylpropyl)-9-oxa-2λ^6-thia-3,5,12,19-tetraazatricyclo[12.3.1.14,8]nonadeca-1(17),4(19),5,7,14(18),15-hexaen-12-yl]-7-azaspiro[3.5]nonane-7-carboxylate] | +++ (+++ is >60%) | < 1000 |  |  | 
2 | CO[C@H]1C[C@H]2CC(N3C(=O)c4cccc(c4)S(=O)(=O)Nc4nc(cc(-c5c(C)cccc5C)n4)OC[C@H]3CC(C)C)C[C@H]2C1 (stereo partly drawn) [Compound 37, (11R)-12-[(3aR,6aS)-5-Methoxy-1,2,3,3a,4,5,6,6a-octahydropentalen-2-yl]-6-(2,6-dimethylphenyl)-11-isobutyl-2,2-dioxo-9-oxa-2λ^6-thia-3,5,12,19-tetrazatricyclo[12.3.1.14,8]nonadeca-1(18),4(19),5,7,14,16-hexaen-13-one] | +++ (+++ is >60%) | < 1000 |  |  | 
3 | Cc1cccc(C)c1-c1cc2nc(n1)NS(=O)(=O)c1cccc(n1)C(=O)N(C1CC3(C1)CC(C(C)(C)O)C3)[C@H](CC(C)(C)C)CO2 (single isomer, unassigned) [Compound 161] |  |  | +++ (+++ is >60%) | < 1000 | 
4 | Cc1cccc(C)c1-c1cc2nc(n1)NS(=O)(=O)c1cccc(c1)C(=O)N(C1CC3(C1)CN(C(=O)OC(C)C)C3)[C@H](CC(C)C)CO2 [Compound 102, Isopropyl 6-[(11R)-6-(2,6-dimethylphenyl)-11-isobutyl-2,2,13-trioxo-9-oxa-2λ^6-thia-3,5,12,19-tetrazatricyclo[12.3.1.14,8]nonadeca-1(18),4(19),5,7,14,16-hexaen-12-yl]-2-azaspiro[3.3]heptane-2-carboxylate] |  |  |  |  | Ent. B Max Activity (%): +++ (+++ is >60%); EC50 (read-out: Ent. B EC50): < 1000 nM
5 | Cc1cccc(C)c1-c1cc2nc(n1)NS(=O)(=O)c1cccc(c1)C(=O)N([C@H]1C[C@](C)(NC(=O)OC(C)C)C1)[C@H](CC(C)(C)C)CO2 (stereo in doubt) [Compound 244] |  |  | ++ (++ is 30-60%) | < 1000 | 
6 | Cc1cccc(C)c1-c1cc2nc(n1)NS(=O)(=O)c1cccc(c1)C(=O)N([C@H]1C[C@@H](CC(C)(C)O)C1)[C@H](CC(C)(C)C)CO2 (single isomer, unassigned) [Compound 152] |  |  | +++ (+++ is >60%) | < 1000 | 
7 | Cc1cccc(C)c1-c1cc2nc(n1)NS(=O)(=O)c1cccc(c1)C(=O)N([C@H]1C[C@@H](N3CC(N(C)C)C3)C1)[C@H](CC(C)C)CO2 [Compound 66, (11R)-12-[3-[3-(Dimethylamino)azetidin-1-yl]cyclobutyl]-6-(2,6-dimethylphenyl)-11-isobutyl-2,2-dioxo-9-oxa-2λ^6-thia-3,5,12,19-tetrazatricyclo[12.3.1.14,8]nonadeca-1(18),4(19),5,7,14,16-hexaen-13-one] | +++ (+++ is >60%) | < 1000 |  |  | 
8 | CO[C@H]1C[C@@H](N2C(=O)c3cccc(c3)S(=O)(=O)Nc3nc(cc(-c4c(C)cccc4C)n3)OC[C@H]2CC(C)(C)C)C1 (single isomer, unassigned) [Compound 150] |  |  |  |  | Ent. B Max Activity (%): +++ (+++ is >60%); EC50 (read-out: Ent. B EC50): < 1000 nM
9 | Cc1cccc(C)c1-c1cc2nc(n1)NS(=O)(=O)c1cccc(c1)C(=O)N([C@H]1C[C@@H](CN(C)C)C1)[C@H](CC(C)C)CO2 (single isomer, unassigned) [Compound 105] | +++ (+++ is >60%) | < 1000 |  |  | 
10 | COC(=O)NC1CC2(C1)CC(N1C(=O)c3cccc(c3)S(=O)(=O)Nc3nc(cc(-c4c(C)cccc4C)n3)OC[C@H]1CC(C)(C)C(F)(F)F)C2 (single isomer, unassigned) [Compound 76] | +++ (+++ is >60%) | < 1000 |  |  | 

From patent US20230382925A1, “MODULATORS OF CYSTIC FIBROSIS TRANSMEMBRANE CONDUCTANCE REGULATOR” (VERTEX PHARMACEUTICALS INCORPORATED, priority 2020, published 2023)
